From ChEMBL document CHEMBL1201861, “Genomics of Drug Sensitity in Cancer screening data, Wellcome Trust Sanger Institute”
“And” between values parts separate entries of the source, which are not always exact repeats. Identical values can stand only once. Where a SMILES comes first, the peptide text is derived from it. The star is where a group is joined. Cbz = O=C(OCc1ccccc1)*

Tests used:
Test in all cases: cells
COLO-800 = assay type: functional, cell-based, Homo sapiens;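 note: growth inhibition of COLO-800 cells, read out with a cell viability assay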
Description: SANGER: Inhibition of human COLO-800 cell growth in a cell viability assay.

COLO-824 = assay type: functional, cell-based, Homo sapiens
Description: SANGER: Inhibition of human COLO-824 cell growth in a cell viability assay.

CW-2 = assay type: functional, cell-based, Homo sapiens;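 note: growth inhibition of CW-2 cells, read out by a cell viability assay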
Description: SANGER: Inhibition of human CW-2 cell growth in a cell viability assay.

Calu-6 = assay type: functional, cell-based, Homo sapiens;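 note: growth of human Calu-6 cells, read out by a cell viability assay, IC50 marking inhibition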
Description: SANGER: Inhibition of human Calu-6 cell growth in a cell viability assay.

DOHH-2 = assay type: functional, cell-based, Homo sapiens;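 note: growth inhibition of human DOHH-2 cells, read out with a cell viability assay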
Description: SANGER: Inhibition of human DOHH-2 cell growth in a cell viability assay.

DU-4475 = assay type: functional, cell-based, Homo sapiens
Description: SANGER: Inhibition of human DU-4475 cell growth in a cell viability assay.

EKVX = assay type: functional, cell-based, Homo sapiens;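 note: growth inhibition of human EKVX cells, read out with a cell viability assay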
Description: SANGER: Inhibition of human EKVX cell growth in a cell viability assay.

EM-2 = assay type: functional, cell-based, Homo sapiens;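 note: growth inhibition of EM-2 cells, read out with a cell viability assay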
Description: SANGER: Inhibition of human EM-2 cell growth in a cell viability assay.

ES4 = assay type: functional, cell-based, Homo sapiens;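 note: growth inhibition of human ES4 cells, read out by a cell viability assay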
Description: SANGER: Inhibition of human ES4 cell growth in a cell viability assay.

ES5 = assay type: functional, cell-based, Homo sapiens;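 note: growth inhibition of human ES5 cells, read out by a cell viability assay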
Description: SANGER: Inhibition of human ES5 cell growth in a cell viability assay.

GCIY = assay type: functional, cell-based, Homo sapiens;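 note: growth inhibition of the human GCIY cell line, read out by a cell viability assay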
Description: SANGER: Inhibition of human GCIY cell growth in a cell viability assay.

HCC1187 = assay type: functional, cell-based, Homo sapiens;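 note: growth inhibition of HCC1187 cells, read out with a cell viability assay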
Description: SANGER: Inhibition of human HCC1187 cell growth in a cell viability assay.

HCC2157 = assay type: functional, cell-based, Homo sapiens;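 note: growth inhibition of the cancer cell line, read out as cell viability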
Description: SANGER: Inhibition of human HCC2157 cell growth in a cell viability assay.

HDLM-2 = assay type: functional, cell-based, Homo sapiens;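 note: cell viability assay measuring suppression of HDLM-2 proliferation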
Description: SANGER: Inhibition of human HDLM-2 cell growth in a cell viability assay.

HT-144 = assay type: functional, cell-based, Homo sapiens
Description: SANGER: Inhibition of human HT-144 cell growth in a cell viability assay.

JVM-2 = assay type: functional, cell-based, Homo sapiens;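 note: growth inhibition of JVM-2 cells determined by a cell viability assay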
Description: SANGER: Inhibition of human JVM-2 cell growth in a cell viability assay.

KARPAS-299 = assay type: functional, cell-based, Homo sapiens
Description: SANGER: Inhibition of human KARPAS-299 cell growth in a cell viability assay.

LB831-BLC = assay type: functional, cell-based, Homo sapiens;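 note: growth inhibition of LB831-BLC cells, read out with a cell viability assay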
Description: SANGER: Inhibition of human LB831-BLC cell growth in a cell viability assay.

LS-123 = assay type: functional, cell-based, Homo sapiens
Description: SANGER: Inhibition of human LS-123 cell growth in a cell viability assay.

LS-513 = assay type: functional, cell-based, Homo sapiens
Description: SANGER: Inhibition of human LS-513 cell growth in a cell viability assay.

Lu-65 = assay type: functional, cell-based, Homo sapiens;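 note: growth inhibition of Lu-65 cancer cells, read out by a cell viability assay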
Description: SANGER: Inhibition of human LU-65 cell growth in a cell viability assay.

MC116 = assay type: functional, cell-based, Homo sapiens;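 note: growth inhibition of MC116 cells, read out with a cell viability assay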
Description: SANGER: Inhibition of human MC116 cell growth in a cell viability assay.

MOLT-4 = assay type: functional, cell-based, Homo sapiens;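 note: growth inhibition of MOLT-4 cells, determined with a cell viability readout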
Description: SANGER: Inhibition of human MOLT-4 cell growth in a cell viability assay.

MZ1-PC = assay type: functional, cell-based, Homo sapiens;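 note: cell viability assay measuring growth inhibition of human MZ1-PC cells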
Description: SANGER: Inhibition of human MZ1-PC cell growth in a cell viability assay.

NB10 = assay type: functional, cell-based, Homo sapiens;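 note: growth inhibition of NB10 cells, read out by a cell viability assay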
Description: SANGER: Inhibition of human NB10 cell growth in a cell viability assay.

NCI-H1770 = assay type: functional, cell-based, Homo sapiens;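 note: growth inhibition of NCI-H1770 cells determined with a viability readout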
Description: SANGER: Inhibition of human NCI-H1770 cell growth in a cell viability assay.

NCI-H2126 = assay type: functional, cell-based, Homo sapiens;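 note: growth inhibition of the cancer cell line, determined with a cell viability readout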
Description: SANGER: Inhibition of human NCI-H2126 cell growth in a cell viability assay.

NCI-H23 = assay type: functional, cell-based, Homo sapiens;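 note: cell viability assay measuring growth inhibition of NCI-H23 cells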
Description: SANGER: Inhibition of human NCI-H23 cell growth in a cell viability assay.

NCI-H747 = assay type: functional, cell-based, Homo sapiens;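 note: growth inhibition of human NCI-H747 cells, read out by a cell viability assay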
Description: SANGER: Inhibition of human NCI-H747 cell growth in a cell viability assay.

NCI-H82 = assay type: functional, cell-based, Homo sapiens;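 note: growth inhibition of NCI-H82 cells, measured with a cell viability readout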
Description: SANGER: Inhibition of human NCI-H82 cell growth in a cell viability assay.

SNU-5 = assay type: functional, cell-based, Homo sapiens;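 note: cell viability readout used to measure growth inhibition in human NCI-SNU-5 cells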
Description: SANGER: Inhibition of human NCI-SNU-5 cell growth in a cell viability assay.

NTERA-2-cl-D1 = assay type: functional, cell-based, Homo sapiens;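 note: inhibition of cell growth, measured with a cell viability assay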
Description: SANGER: Inhibition of human NTERA-S-cl-D1 cell growth in a cell viability assay.

P30-OHK = assay type: functional, cell-based, Homo sapiens;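 note: growth inhibition of the P30-OHK cell line, read out with a cell viability assay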
Description: SANGER: Inhibition of human P30-OHK cell growth in a cell viability assay.

QIMR-WIL = assay type: functional, cell-based, Homo sapiens;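 note: growth inhibition of QIMR-WIL cells, read out with a cell viability assay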
Description: SANGER: Inhibition of human QIMR-WIL cell growth in a cell viability assay.

RXF 393 = assay type: functional, cell-based, Homo sapiens;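 note: growth inhibition of human RXF 393 cells, read out with a cell viability assay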
Description: SANGER: Inhibition of human RXF393 cell growth in a cell viability assay.

SCH = assay type: functional, cell-based, Homo sapiens;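 note: growth inhibition of human SCH cells, read out in a cell viability assay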
Description: SANGER: Inhibition of human SCH cell growth in a cell viability assay.

SF-539 = assay type: functional, cell-based, Homo sapiens;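 note: Read-out is a cell viability assay, with IC50 reflecting inhibition of cell growth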
Description: SANGER: Inhibition of human SF539 cell growth in a cell viability assay.

SK-LMS-1 = assay type: functional, cell-based, Homo sapiens;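 note: growth inhibition of human SK-LMS-1 cells, read out with a cell viability assay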
Description: SANGER: Inhibition of human SK-LMS-1 cell growth in a cell viability assay.

SK-PN-DW = assay type: functional, cell-based, Homo sapiens;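 note: growth inhibition measured with a viability assay on these cells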
Description: SANGER: Inhibition of human SK-PN-DW cell growth in a cell viability assay.

SNB-75 = assay type: functional, cell-based, Homo sapiens;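 note: cell viability assay measuring growth inhibition of human SNB-75 cells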
Description: SANGER: Inhibition of human SNB75 cell growth in a cell viability assay.

A3-KAW = assay type: functional, cell-based, Homo sapiens;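 note: growth inhibition of human A3-KAW cells, read out with a cell viability assay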
Description: SANGER: Inhibition of human A3-KAW cell growth in a cell viability assay.

ACN = assay type: functional, cell-based, Homo sapiens;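 note: growth inhibition of the human ACN cell line, read out via cell viability testing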
Description: SANGER: Inhibition of human ACN cell growth in a cell viability assay.

BB30-HNC = assay type: functional, cell-based, Homo sapiens;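 note: growth inhibition of the cultured cell line, read out by a cell viability assay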
Description: SANGER: Inhibition of human BB30-HNC cell growth in a cell viability assay.

TE-10 = assay type: functional, cell-based, Homo sapiens;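 note: growth inhibition of TE-10 cells, measured by a cell viability assay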
Description: SANGER: Inhibition of human TE-10 cell growth in a cell viability assay.

TE-11 = assay type: functional, cell-based; conditions: Homo sapiens;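 note: growth inhibition of human TE-11 cells, read out by a cell viability assay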
Description: SANGER: Inhibition of human TE-11 cell growth in a cell viability assay.

TE-12 = assay type: functional, cell-based, Homo sapiens;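 note: growth inhibition of TE-12 cells, read out by a cell viability assay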
Description: SANGER: Inhibition of human TE-12 cell growth in a cell viability assay.

TE-5 = assay type: functional, cell-based, Homo sapiens;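 note: inhibition of cell growth, read out by a cell viability assay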
Description: SANGER: Inhibition of human TE-5 cell growth in a cell viability assay.

TE-8 = assay type: functional, cell-based, Homo sapiens;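 note: growth inhibition of TE-8 cells, measured with a cell viability readout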
Description: SANGER: Inhibition of human TE-8 cell growth in a cell viability assay.

D-247MG = assay type: functional, cell-based; conditions: Homo sapiens
Description: SANGER: Inhibition of human D-247MG cell growth in a cell viability assay.

ES6 = assay type: functional, cell-based; conditions: Homo sapiens;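 note: growth inhibition of human ES6 cells, read out with a cell viability assay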
Description: SANGER: Inhibition of human ES6 cell growth in a cell viability assay.

For `CC(C)C[C@@H](C=O)NC(=O)[C@H](CC(C)C)NC(=O)[C@H](CC(C)C)NC(=O)OCc1ccccc1` [MG-132] (Cbz-Leu-Leu-Leu-aldehyde), the IC50 (COLO-800; colo-800) was over 1000 nM, the IC50 (COLO-824; colo-824) was over 1000 nM and the IC50 (CW-2; cw-2) was over 1000 nM. The IC50 (Calu-6; Homo sapiens, Calu-6) was over 1000 nM, the IC50 (Calu-6; calu-6) was over 1000 nM and the IC50 (DOHH-2; dohh-2) was over 1000 nM. The IC50 (DU-4475; du-4475) was 197 nM and > 1000 nM, the IC50 (EKVX; ekvx) was over 1000 nM and the IC50 (EM-2; em-2) was > 1000 nM and 878 nM. It also gave an IC50 (ES4; es4) of over 1000 nM, an IC50 (ES5; es5) of over 1000 nM and an IC50 (GCIY; gciy) of over 1000 nM. It also gave an IC50 (HCC1187; hcc1187) of over 1000 nM, an IC50 (HCC2157; hcc2157) of over 1000 nM and an IC50 (HDLM-2; hdlm-2) of over 1000 nM. The IC50 (HT-144; ht-144) was 139 nM and 334 nM, the IC50 (JVM-2; jvm-2) was over 1000 nM and the IC50 (KARPAS-299; karpas-299) was over 1000 nM. The IC50 (LB831-BLC; lb831-blc) was 193 nM and 476 nM, the IC50 (LS-123; ls-123) was over 1000 nM and the IC50 (LS-513; ls-513) was 668 nM and > 1000 nM. It also gave an IC50 (Lu-65; lu-65) of over 1000 nM, an IC50 (MC116; mc116) of over 1000 nM and an IC50 (MOLT-4; molt-4) of over 1000 nM. The IC50 (MZ1-PC; Homo sapiens, MZ1-PC) was over 1000 nM, the IC50 (MZ1-PC; mz1-pc) was over 1000 nM and the IC50 (NB10; nb10) was over 1000 nM. For the same compound, the IC50 (NCI-H1770; nci-h1770) was over 1000 nM, the IC50 (NCI-H2126; nci-h2126) was 627 nM and > 1000 nM and the IC50 (NCI-H23; nci-h23) was over 1000 nM. It also gave an IC50 (NCI-H747; Homo sapiens, NCI-H747) of 371 nM, an IC50 (NCI-H747; nci-h747) of 713 nM and an IC50 (NCI-H82; nci-h82) of over 1000 nM. The IC50 (SNU-5; snu-5) was 695 nM and > 1000 nM, the IC50 (NTERA-2-cl-D1; ntera-2-cl-d1) was 57.7 nM and 426 nM and the IC50 (P30-OHK; p30-ohk) was over 1000 nM. For the same compound, the IC50 (QIMR-WIL; qimr-wil) was over 1000 nM, the IC50 (RXF 393; rxf 393) was 250 nM and > 1000 nM and the IC50 (SCH; sch) was over 1000 nM. For the same compound, the IC50 (SF-539; sf-539) was over 1000 nM, the IC50 (SK-LMS-1; sk-lms-1) was 193 nM and > 1000 nM and the IC50 (SK-PN-DW; sk-pn-dw) was 232 nM and > 1000 nM. The IC50 (SNB-75; snb-75) was over 1000 nM, the IC50 (A3-KAW; a3-kaw) was over 1000 nM and the IC50 (ACN; acn) was 226 nM and > 1000 nM. The IC50 (BB30-HNC; bb30-hnc) was over 1000 nM, the IC50 (TE-10; te-10) was 964 nM and > 1000 nM and the IC50 (TE-11) was over 1000 nM. For the same compound, the IC50 (TE-12; Homo sapiens, TE-12) was over 1000 nM, the IC50 (TE-12; te-12) was over 1000 nM and the IC50 (TE-5; te-5) was 143 nM and > 1000 nM. For the same compound, the IC50 (TE-8; Homo sapiens, TE-8) was 343 nM and the IC50 (TE-8; te-8) was 270 nM.

`CO[C@@H]1[C@H](N(C)C(=O)c2ccccc2)C[C@H]2O[C@]1(C)n1c3ccccc3c3c4c(c5c6ccccc6n2c5c31)C(=O)NC4` [MIDOSTAURIN] was tested, and the IC50 (DOHH-2; Homo sapiens, DOHH-2) was over 512 nM, the IC50 (KARPAS-299; Homo sapiens, KARPAS-299) was over 512 nM and the IC50 (Lu-65; Homo sapiens, Lu-65) was over 512 nM. It also gave an IC50 (NCI-H1770; Homo sapiens, NCI-H1770) of over 512 nM, an IC50 (NCI-H747; Homo sapiens, NCI-H747) of over 512 nM and an IC50 (NTERA-2-cl-D1; Homo sapiens, NTERA-2-cl-D1) of 209 nM. The IC50 (SK-LMS-1; Homo sapiens, SK-LMS-1) was 353 nM, the IC50 (BB30-HNC; Homo sapiens, BB30-HNC) was 324 nM and the IC50 (TE-8; Homo sapiens, TE-8) was over 512 nM.

`CN(C)CCOc1ccc(-c2nc(-c3ccncc3)c(-c3ccc4c(c3)CC/C4=N\O)[nH]2)cc1` [SB590885] gave an IC50 (COLO-800; Homo sapiens, COLO-800) of over 5000 nM, an IC50 (COLO-824; Homo sapiens, COLO-824) of over 5000 nM and an IC50 (CW-2; Homo sapiens, CW-2) of over 5000 nM. The IC50 (Calu-6; Homo sapiens, Calu-6) was over 5000 nM, the IC50 (D-247MG) was over 5000 nM and the IC50 (DOHH-2; Homo sapiens, DOHH-2) was over 5000 nM. For the same compound, the IC50 (DU-4475; Homo sapiens, DU-4475) was 23.5 nM, the IC50 (EKVX; Homo sapiens, EKVX) was over 5000 nM and the IC50 (EM-2; Homo sapiens, EM-2) was over 5000 nM. The IC50 (ES4; Homo sapiens, ES4) was over 5000 nM, the IC50 (ES5; Homo sapiens, ES5) was over 5000 nM and the IC50 (ES6) was over 5000 nM. The IC50 (GCIY; Homo sapiens, GCIY) was over 5000 nM, the IC50 (HCC1187; Homo sapiens, HCC1187) was over 5000 nM and the IC50 (HCC2157; Homo sapiens, HCC2157) was over 5000 nM. It also gave an IC50 (HDLM-2; Homo sapiens, HDLM-2) of over 5000 nM, an IC50 (HT-144; Homo sapiens, HT-144) of 435 nM and an IC50 (JVM-2; Homo sapiens, JVM-2) of over 5000 nM. It also gave an IC50 (KARPAS-299; Homo sapiens, KARPAS-299) of over 5000 nM, an IC50 (LB831-BLC; Homo sapiens, LB831-BLC) of over 5000 nM and an IC50 (LS-123; Homo sapiens, LS-123) of over 5000 nM. For the same compound, the IC50 (LS-513; Homo sapiens, LS-513) was over 5000 nM, the IC50 (Lu-65; Homo sapiens, Lu-65) was over 5000 nM and the IC50 (MC116; Homo sapiens, MC116) was over 5000 nM. For the same compound, the IC50 (MOLT-4; Homo sapiens, MOLT-4) was over 5000 nM, the IC50 (MZ1-PC; Homo sapiens, MZ1-PC) was over 5000 nM and the IC50 (NB10; Homo sapiens, NB10) was over 5000 nM. For the same compound, the IC50 (NCI-H1770; Homo sapiens, NCI-H1770) was over 5000 nM, the IC50 (NCI-H2126; Homo sapiens, NCI-H2126) was over 5000 nM and the IC50 (NCI-H23; Homo sapiens, NCI-H23) was over 5000 nM. It also gave an IC50 (NCI-H747; Homo sapiens, NCI-H747) of over 5000 nM, an IC50 (NCI-H82; Homo sapiens, NCI-H82) of over 5000 nM and an IC50 (SNU-5; Homo sapiens, SNU-5) of 1580 nM. The IC50 (NTERA-2-cl-D1; Homo sapiens, NTERA-2-cl-D1) was over 5000 nM, the IC50 (P30-OHK; Homo sapiens, P30-OHK) was over 5000 nM and the IC50 (QIMR-WIL; Homo sapiens, QIMR-WIL) was over 5000 nM. The IC50 (RXF 393; Homo sapiens, RXF 393) was over 5000 nM, the IC50 (SCH; Homo sapiens, SCH) was over 5000 nM and the IC50 (SF-539; Homo sapiens, SF-539) was over 5000 nM. The IC50 (SK-PN-DW; Homo sapiens, SK-PN-DW) was over 5000 nM, the IC50 (SNB-75; Homo sapiens, SNB-75) was over 5000 nM and the IC50 (A3-KAW; Homo sapiens, A3-KAW) was over 5000 nM. It also gave an IC50 (ACN; Homo sapiens, ACN) of 1150 nM, an IC50 (BB30-HNC; Homo sapiens, BB30-HNC) of over 5000 nM and an IC50 (TE-10; Homo sapiens, TE-10) of over 5000 nM. For the same compound, the IC50 (TE-11) was over 5000 nM, the IC50 (TE-12; Homo sapiens, TE-12) was over 5000 nM and the IC50 (TE-5; Homo sapiens, TE-5) was over 5000 nM. For the same compound, the IC50 (TE-8; Homo sapiens, TE-8) was over 5000 nM.
